Measured values as given in ChEMBL document CHEMBL1201862, “PubChem BioAssay data set” (2004).
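All cell lines were grown in 96-well plates and treated with compound for 48 hours. Here, GI50 denotes the concentration required for 50% inhibition of growth.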 Active and inactive are the calls of the source. Rule as the data show it: active = GI50 up to about 1.1 µM and inactive = higher.

Experiments:
Experiment in all cases: NCI anticancer screen, dose series, 48 h
[1] = system: TK-10
[2] = system: NCI-H226
[3] = system: U-251
[4] = system: KM12
[5] = system: A549
[6] = system: NCI-H522
[7] = system: SK-MEL-28
[8] = system: UACC-257
[9] = system: NCI/ADR-RES
[10] = system: EKVX
[11] = system: UACC-62
[12] = system: MDA-MB-231
[13] = system: OVCAR-4
[14] = system: SF-295
[15] = system: MDA-N
[16] = system: HCC 2998
[17] = system: HCT-116
[18] = system: HL-60
[19] = system: SK-MEL-2
[20] = system: ACHN

Structure (SMILES) | GI50 [1] | GI50 [2] | GI50 [3] | GI50 [4] | GI50 [5] | GI50 [6] | GI50 [7] | GI50 [8] | GI50 [9] | GI50 [10] | GI50 [11] | GI50 [12] | GI50 [13] | GI50 [14] | GI50 [15] | GI50 [16] | GI50 [17] | GI50 [18] | GI50 [19] | GI50 [20]
COC(=O)C1=C(C(=O)OC)C2OC1c1cc3ccccc3cc12 | 5.2 µM (inactive) | 5.15 µM (inactive) | 17.3 µM (inactive) | 23.7 µM (inactive) | 18.7 µM (inactive) | 1.3 µM (inactive) | 2 µM (inactive) | 6.32 µM (inactive) | 10.8 µM (inactive) | 6.07 µM (inactive) | 14.5 µM (inactive) | 17.7 µM (inactive) | 1.78 µM (inactive) | 18.8 µM (inactive) | 6.62 µM (inactive) | 6.34 µM (inactive) | 1.74 µM (inactive) | 0.0841 µM (active) | 15.4 µM (inactive) | 1.63 µM (inactive)
CCC1=CC2Cc3nc4cc(Cl)ccc4c(N)c3C(C1)C2 (stereo not given) | 4.38 µM (inactive) | 1.48 µM (inactive) | 8.59 µM (inactive) | 5.78 µM (inactive) | 7.59 µM (inactive) | 7.5 µM (inactive) | 2.86 µM (inactive) | 2.11 µM (inactive) | 8.3 µM (inactive) | 3.18 µM (inactive) | 6.04 µM (inactive) | 5.58 µM (inactive) | 3.59 µM (inactive) | 4.45 µM (inactive) | 6.08 µM (inactive) | 1.51 µM (inactive) | 2.54 µM (inactive) | 2.29 µM (inactive) | 5.45 µM (inactive) | 7.8 µM (inactive)
CCOC(=O)C(NC(=O)c1ccccc1)(Nc1cc(C)on1)C(F)(F)F (stereo not given) | > 100 µM (inactive) | > 100 µM (inactive) | > 100 µM (inactive) | > 100 µM (inactive) | > 100 µM (inactive) | > 100 µM (inactive) | > 100 µM (inactive) | > 100 µM (inactive) | > 100 µM (inactive) | > 100 µM (inactive) | > 100 µM (inactive) | 10.9 µM (inactive) | > 100 µM (inactive) | > 100 µM (inactive) | > 100 µM (inactive) | > 100 µM (inactive) | > 100 µM (inactive) | > 100 µM (inactive) | > 100 µM (inactive) | > 100 µM (inactive)
COc1ccc(C(=O)C#Cc2cn(C3CC(O)C(CO)O3)c(=O)[nH]c2=O)cc1 (stereo not given) | 78.3 µM (inactive) | 32 µM (inactive) | > 100 µM (inactive) | > 100 µM (inactive) | > 100 µM (inactive) | 11.9 µM (inactive) | 20.4 µM (inactive) | 94.8 µM (inactive) | 42.6 µM (inactive) | > 100 µM (inactive) | 55.5 µM (inactive) | > 100 µM (inactive) | 48.6 µM (inactive) | > 100 µM (inactive) | 60.3 µM (inactive) | > 100 µM (inactive) | 39.7 µM (inactive) | > 10 µM (inactive) | 56.4 µM (inactive) | > 100 µM (inactive)
O=c1[nH]nc(Cc2ccccc2)n1Nc1ccccc1 | > 100 µM (inactive) | > 100 µM (inactive) | > 100 µM (inactive) | > 100 µM (inactive) | > 100 µM (inactive) | > 100 µM (inactive) | > 100 µM (inactive) | > 100 µM (inactive) | > 100 µM (inactive) | > 100 µM (inactive) | > 100 µM (inactive) | > 100 µM (inactive) | > 100 µM (inactive) | > 100 µM (inactive) | > 100 µM (inactive) | > 100 µM (inactive) | > 100 µM (inactive) | > 100 µM (inactive) | 48.4 µM (inactive) | > 100 µM (inactive)
O=[N+]([O-])/C(C(Cl)=C(Cl)Cl)=C(/Cl)Sc1ccccc1 | 2.67 µM (inactive) | 7.76 µM (inactive) | 2.25 µM (inactive) | 17.9 µM (inactive) | 3.6 µM (inactive) | 1.23 µM (inactive) | 1.72 µM (inactive) | 1.25 µM (inactive) | 1.08 µM (active) | 15.6 µM (inactive) | 1.8 µM (inactive) | 1.86 µM (inactive) | 1.62 µM (inactive) | 20 µM (inactive) | 1.59 µM (inactive) | 2.7 µM (inactive) | 1.31 µM (inactive) | 0.139 µM (active) | 13.3 µM (inactive) | 2.08 µM (inactive)
Clc1ccc(Cl)c(NNc2cc(Cl)ccc2Cl)c1 | 4.76 µM (inactive) | > 10 µM (inactive) | 7.59 µM (inactive) | > 10 µM (inactive) | 6.67 µM (inactive) | 3.68 µM (inactive) | 6.38 µM (inactive) | > 10 µM (inactive) | 2.92 µM (inactive) | 4.45 µM (inactive) | 3.88 µM (inactive) | > 10 µM (inactive) | 4.95 µM (inactive) | > 10 µM (inactive) | 5.57 µM (inactive) | 7.03 µM (inactive) | 3.84 µM (inactive) | > 10 µM (inactive) | 2.83 µM (inactive) | 2.84 µM (inactive)
